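How tested: cells in 96-well plates exposed to compound for 48 hours at five concentrations. GI50 is the concentration that inhibits growth by half.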 Activity calls are given as the source filed them. Rule as the data show it: active = GI50 up to about 1.1 µM and inactive = higher.
How the values were obtained:
Assay in all cases: NCI-60 cell line screen, 48 h
[1] = system: 786-0
[2] = system: ACHN
[3] = system: CCRF-CEM
[4] = system: DU-145
[5] = system: HL-60
[6] = system: IGROV-1
[7] = system: LOX IMVI
[8] = system: M14
[9] = system: MCF7
[10] = system: MDA-N
[11] = system: Malme-3M
[12] = system: NCI-H226
[13] = system: NCI-H522
[14] = system: NCI/ADR-RES
[15] = system: SF-268
[16] = system: SF-295
[17] = system: SK-MEL-2
[18] = system: SK-MEL-5
[19] = system: TK-10
[20] = system: UACC-62

Compound	GI50 [1]	GI50 [2]	GI50 [3]	GI50 [4]	GI50 [5]	GI50 [6]	GI50 [7]	GI50 [8]	GI50 [9]	GI50 [10]	GI50 [11]	GI50 [12]	GI50 [13]	GI50 [14]	GI50 [15]	GI50 [16]	GI50 [17]	GI50 [18]	GI50 [19]	GI50 [20]
OCCCNCc1ccccn1	> 100 µM (inactive)	> 100 µM (inactive)	> 100 µM (inactive)	> 100 µM (inactive)	68.1 µM (inactive)	> 100 µM (inactive)	> 100 µM (inactive)	> 100 µM (inactive)	> 100 µM (inactive)	> 100 µM (inactive)	> 100 µM (inactive)	> 100 µM (inactive)	> 100 µM (inactive)	> 100 µM (inactive)	> 100 µM (inactive)	> 100 µM (inactive)	> 100 µM (inactive)	> 100 µM (inactive)	> 100 µM (inactive)	> 100 µM (inactive)
CN(CC(=O)O)Cc1c[nH]c2ccccc12	> 100 µM (inactive)	> 100 µM (inactive)	> 100 µM (inactive)	> 100 µM (inactive)	> 100 µM (inactive)	> 100 µM (inactive)	> 100 µM (inactive)	> 100 µM (inactive)	> 100 µM (inactive)	> 100 µM (inactive)	> 100 µM (inactive)	> 100 µM (inactive)	> 100 µM (inactive)	> 100 µM (inactive)	> 100 µM (inactive)	> 100 µM (inactive)	> 100 µM (inactive)	> 100 µM (inactive)	> 100 µM (inactive)	> 100 µM (inactive)
CC(=O)c1c(SCCN2CCOCC2)n(-c2ccccc2)c(=S)n(-c2ccccc2)c1=O	11.5 µM (inactive)	14.8 µM (inactive)	10.8 µM (inactive)	8.99 µM (inactive)	28.5 µM (inactive)	16.9 µM (inactive)	8.39 µM (inactive)	16.1 µM (inactive)	2.21 µM (inactive)	18.8 µM (inactive)	28.2 µM (inactive)	> 53.1 µM (inactive)	21.8 µM (inactive)	> 57 µM (inactive)	20.2 µM (inactive)	> 62.7 µM (inactive)	20.2 µM (inactive)	17.3 µM (inactive)	17.2 µM (inactive)	15.5 µM (inactive)
Cc1ncc(CO)c(CN)c1O	> 100 µM (inactive)	> 100 µM (inactive)	> 100 µM (inactive)	> 100 µM (inactive)	41.9 µM (inactive)	> 100 µM (inactive)	> 100 µM (inactive)	> 100 µM (inactive)	> 100 µM (inactive)	> 100 µM (inactive)	> 100 µM (inactive)	> 100 µM (inactive)	> 100 µM (inactive)	> 100 µM (inactive)	> 100 µM (inactive)	> 100 µM (inactive)	> 100 µM (inactive)	> 100 µM (inactive)	> 100 µM (inactive)	> 100 µM (inactive)
COc1cc2c(cc1OC)C(SC)C(=O)N(Cc1cccc(OC)c1OC)CC2 (stereo not given)	3.85 µM (inactive)	5.04 µM (inactive)	3.61 µM (inactive)	2.51 µM (inactive)	0.411 µM (active)	2.77 µM (inactive)	2.1 µM (inactive)	2.28 µM (inactive)	0.746 µM (active)	0.297 µM (active)	3.15 µM (inactive)	3.21 µM (inactive)	0.64 µM (active)	2.73 µM (inactive)	4.67 µM (inactive)	0.63 µM (active)	1.26 µM (inactive)	0.703 µM (active)	5.62 µM (inactive)	0.731 µM (active)
O=c1[nH]nc(Cc2ccc(Cl)cc2)n1O	> 100 µM (inactive)	> 100 µM (inactive)	> 100 µM (inactive)	> 100 µM (inactive)	> 100 µM (inactive)	> 100 µM (inactive)	> 100 µM (inactive)	> 100 µM (inactive)	> 100 µM (inactive)	> 100 µM (inactive)	> 100 µM (inactive)	> 100 µM (inactive)	> 100 µM (inactive)	> 100 µM (inactive)	> 100 µM (inactive)	> 100 µM (inactive)	> 100 µM (inactive)	> 100 µM (inactive)	> 100 µM (inactive)	> 100 µM (inactive)
O=c1c2ncn(C3CCCCO3)c2n(-c2ccccc2)c(=S)n1-c1ccccc1 (stereo not given)	16.4 µM (inactive)	45.1 µM (inactive)	> 83 µM (inactive)	> 71.3 µM (inactive)	> 64.4 µM (inactive)	28.6 µM (inactive)	56.5 µM (inactive)	> 92.5 µM (inactive)	49.5 µM (inactive)	> 66.1 µM (inactive)	> 41.5 µM (inactive)	25.9 µM (inactive)	39.6 µM (inactive)	30.1 µM (inactive)	11 µM (inactive)	16.1 µM (inactive)	39.2 µM (inactive)	> 74.3 µM (inactive)	31.9 µM (inactive)	18.5 µM (inactive)
CSc1nc(SC)c2c(CO)c(Br)n(Cc3ccccc3)c2n1	18.7 µM (inactive)	15.3 µM (inactive)	> 100 µM (inactive)	25.9 µM (inactive)	> 100 µM (inactive)	16 µM (inactive)	25.3 µM (inactive)	83.2 µM (inactive)	24.6 µM (inactive)	> 100 µM (inactive)	52.4 µM (inactive)	11.3 µM (inactive)	14.2 µM (inactive)	24.7 µM (inactive)	16.3 µM (inactive)	20.7 µM (inactive)	25.7 µM (inactive)	48.9 µM (inactive)	21.8 µM (inactive)	17.5 µM (inactive)
c1ccc2c(c1)ncn2C1CCCCO1 (stereo not given)	> 100 µM (inactive)	> 100 µM (inactive)	> 100 µM (inactive)	> 100 µM (inactive)	> 100 µM (inactive)	> 100 µM (inactive)	> 100 µM (inactive)	> 100 µM (inactive)	> 100 µM (inactive)	> 100 µM (inactive)	> 100 µM (inactive)	> 100 µM (inactive)	> 100 µM (inactive)	> 100 µM (inactive)	> 100 µM (inactive)	> 100 µM (inactive)	> 100 µM (inactive)	> 100 µM (inactive)	> 100 µM (inactive)	> 100 µM (inactive)
COC(=O)/C=C\C(C#N)(C#N)/N=C/c1ccc(C)s1	1.69 µM (inactive)	1.67 µM (inactive)	0.0847 µM (active)	4.48 µM (inactive)	2.29 µM (inactive)	2 µM (inactive)	1.67 µM (inactive)	1.85 µM (inactive)	1.49 µM (inactive)	2.49 µM (inactive)	1.6 µM (inactive)	16.7 µM (inactive)	0.713 µM (active)	5.92 µM (inactive)	6.82 µM (inactive)	17.8 µM (inactive)	5.48 µM (inactive)	6.92 µM (inactive)	1.97 µM (inactive)	15.2 µM (inactive)
Cc1cc2c(c(O)c1-c1c(C)cc(O)c3c1C(=O)C=CC3=O)C(=O)C=CC2=O	1.16 µM (inactive)	0.388 µM (active)	< 0.01 µM (active)	2.19 µM (inactive)	< 0.01 µM (active)	2.26 µM (inactive)	1.11 µM (active)	2.18 µM (inactive)	0.966 µM (active)	1.46 µM (inactive)	0.342 µM (active)	20.2 µM (inactive)	0.136 µM (active)	2.49 µM (inactive)	1.92 µM (inactive)	16.7 µM (inactive)	10 µM (inactive)	4.01 µM (inactive)	0.855 µM (active)	2.13 µM (inactive)
COc1ccc(Cn2c(=O)c(OC)c(C)c3cc4ccccc4cc32)cc1	33 µM (inactive)	34.6 µM (inactive)	23.3 µM (inactive)	35.2 µM (inactive)	20 µM (inactive)	21.4 µM (inactive)	18.4 µM (inactive)	41.2 µM (inactive)	33.7 µM (inactive)	34.3 µM (inactive)	21.1 µM (inactive)	45.7 µM (inactive)	21.4 µM (inactive)	22.1 µM (inactive)	39 µM (inactive)	32.3 µM (inactive)	17.2 µM (inactive)	6.21 µM (inactive)	25.7 µM (inactive)	13.2 µM (inactive)
Cc1nc2ccc(S(=O)(=O)Nc3ccccn3)cc2c(=O)n1NS(=O)(=O)c1ccccn1	> 100 µM (inactive)	> 100 µM (inactive)	> 100 µM (inactive)	> 100 µM (inactive)	> 100 µM (inactive)	> 100 µM (inactive)	> 100 µM (inactive)	> 100 µM (inactive)	> 100 µM (inactive)	> 100 µM (inactive)	> 100 µM (inactive)	> 100 µM (inactive)	> 100 µM (inactive)	> 100 µM (inactive)	> 100 µM (inactive)	> 100 µM (inactive)	> 100 µM (inactive)	> 100 µM (inactive)	> 100 µM (inactive)	> 100 µM (inactive)
COC(=O)c1ccccc1CC1Cc2ccc3c(c2C1)CCC3 (stereo not given)	33.3 µM (inactive)	30.5 µM (inactive)	17.9 µM (inactive)	45.1 µM (inactive)	13.9 µM (inactive)	35.4 µM (inactive)	16 µM (inactive)	33.9 µM (inactive)	14.3 µM (inactive)	34 µM (inactive)	19.4 µM (inactive)	35.1 µM (inactive)	17.7 µM (inactive)	21 µM (inactive)	41.3 µM (inactive)	35.2 µM (inactive)	15.6 µM (inactive)	22.1 µM (inactive)	21.3 µM (inactive)	38.5 µM (inactive)

From ChEMBL document CHEMBL1201862, “PubChem BioAssay data set” (2004)
